What was measured:
[1] = system: MDR strain of Mycobacterium tuberculosis; assay: Anti-tubercular activity, colorimetric Resazurin Microplate Assay (REMA); format: cell-based; conditions: 192 h, read-out: Anti-tubercular activity against Mycobacterium tuberculosis MDR (MIC)
[2] = system: XDR strain of Mycobacterium tuberculosis; assay: as above; format: cell-based; conditions: 192 h, read-out: Anti-tubercular activity against Mycobacterium tuberculosis XDR (MIC)

## CC(C)OC(=O)c1cc[n+](CC(=O)c2ccccc2)cc1.[Br-] [Compound 4a, 4-(Isopropoxycarbonyl)-1-(2-oxo-2-phenylethyl)pyridin-1-ium Bromide]
[1]
  MIC: 2 µg/mL
[2]
  MIC: 2 µg/mL

## CC(C)OC(=O)c1cc[n+](CC(=O)c2ccc(F)cc2)cc1.[Br-] [Compound 4b, 1-(2-(4-Fluorophenyl)-2-oxoethyl)-4-(isopropoxycarbonyl)pyridin-1-ium bromide]
[1]
  MIC: 1 µg/mL
[2]
  MIC: 16 µg/mL

Source: patent publication US11919860B1 (priority 2023, dated 2024)
